Measured values taken from paper PMC5011342, “A high throughput drug screening assay to identify compounds that promote oligodendrocyte differentiation using acutely dissociated and purified oligodendrocyte precursor cells” (BMC Research Notes, 2016).
Where two headings read alike, the source gives them in different places. Non-standard residues stand in square brackets, D forms with d. Residues, ends and D or L forms follow the SMILES beside them. pGlu = O=C1CC[C@@H](C(=O)O)N1; Thz = O=C(O)[C@@H]1CSCN1

Experiments:
[1] = system: acutely dissociated and purified rat OPCs; test: Acute OL differentiation assay (MBP expression/cell, immunofluorescent image quantification); type: cell-based
Outline: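 This acute differentiation assay used purified rat OPCs from postnatal day 6–7 pups, seeded into PDL/laminin-coated 96-well plates in differentiation medium lacking PDGF and FGF. Compounds were applied in quadruplicate after a 1–2 h preincubation at 37 °C, 10 % CO2, with 0.1 % DMSO negative and 40 ng/ml T3 positive controls in eight wells. After fixation on DIV4, anti-MBP immunofluorescence images yielded MBP expression/cell.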

expanded OPCs = test: cells; details: for viability at 0.1 µM / viability at 1 µM / viability at 10 µM: Rattus norvegicus, 72 h
Outline: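 Toxicity screen: compounds added at 0.1, 1 and 10 µM to PDGF-AA-expanded OPCs in 96-well plates, 3-day incubation at 37 °C, 10% CO2, then alamarBlue 1:10 for 4 h with fluorescence readout. Results set screening doses of 10/2, 2/0.4 or 0.4/0.08 µM.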

[2] = Rattus norvegicus, 2 uM test compound, relative to quetiapine, sheet "All OLga data", read-out: OL differentiation, 2 uM (% Quet)
[3] = Rattus norvegicus, 10 uM test compound, relative to quetiapine, sheet "All OLga data", read-out: OL differentiation, 10 uM (% Quet)
[4] = read-out: 0.1 µM (% DMSO), alamarBlue viability of expanded OPCs, compound at 0.1 µM, sheet All Tox data
[5] = read-out: 1 µM (% DMSO), alamarBlue viability of expanded OPCs, compound at 1 µM, sheet All Tox data
[6] = read-out: 10 µM (% DMSO), alamarBlue viability of expanded OPCs, compound at 10 µM, sheet All Tox data
[7] = Rattus norvegicus, test compound at 2 uM, NCC library screen, sheet "All OLga data", relative to quetiapine, read-out: 2 uM (% Quet)
[8] = Rattus norvegicus, test compound at 10 uM, NCC library screen, sheet "All OLga data", relative to quetiapine, read-out: 10 uM (% Quet)
[9] = read-out: 0.1 µM (% DMSO), alamarBlue viability, NCC library compound at 0.1 µM, sheet "All Tox data"
[10] = read-out: 1 µM (% DMSO), alamarBlue viability, NCC library compound at 1 µM, sheet "All Tox data"
[11] = read-out: 10 µM (% DMSO), alamarBlue viability, NCC library compound at 10 µM, sheet "All Tox data"
[12] = alamarBlue viability of expanded OPCs, compound at 0.1 µM, relative to DMSO control
[13] = alamarBlue viability of expanded OPCs, compound at 1 µM, relative to DMSO control
[14] = alamarBlue viability of expanded OPCs, compound at 10 µM, relative to DMSO control
[15] = Rattus norvegicus, test compound at 2 uM, MBP expression relative to quetiapine, NCC library screen, sheet "All OLga data", read-out: 2 uM (% Quet)
[16] = Rattus norvegicus, test compound at 10 uM, MBP expression relative to quetiapine, NCC library screen, sheet "All OLga data", read-out: 10 uM (% Quet)
[17] = Rattus norvegicus, test compound at 0.4 uM, NCC library screen, sheet "All OLga data", relative to quetiapine, read-out: 0.4 uM (% Quet)

| Compound | activation at 2 µM [1, 2] | activation at 10 µM [1, 3] | viability at 0.1 µM (expanded OPCs; [4]) | viability at 1 µM (expanded OPCs; [5]) | viability at 10 µM (expanded OPCs; [6]) | activation at 2 µM [1, 7] | 0.1 µM (% DMSO) (expanded OPCs; [12]) | 1 µM (% DMSO) (expanded OPCs; [13]) | 10 µM (% DMSO) (expanded OPCs; [14]) | other results |
| --- | --- | --- | --- | --- | --- | --- | --- | --- | --- | --- |
| COc1ccnc(C[S+]([O-])c2nc3ccc(OC(F)F)cc3[nH]2)c1OC (stereo not shown) [Pantoprazole] | 8.8% | -5.3% | 94.1% | 91.1% | 95.2% |  |  |  |  |  |
| CCC(=O)NS(=O)(=O)c1ccc(-c2c(-c3ccccc3)noc2C)cc1 [Parecoxib] |  |  |  |  |  | -1.5% |  |  |  | activation at 10 µM [1, 8]: -3%; viability at 0.1 µM (expanded OPCs; [9]): 90.9%; viability at 1 µM (expanded OPCs; [10]): 87.2%; viability at 10 µM (expanded OPCs; [11]): 95.5% |
| Fc1ccc([C@@H]2CCNC[C@H]2COc2ccc3c(c2)OCO3)cc1 [Paroxetine] |  |  | 70.7% | 38.3% | 11.7% |  | 63.3 % DMSO | 27.9 % DMSO | 8.3 % DMSO | activation at 0.08 µM ([1]; Rattus norvegicus, 0.08 uM test compound, relative to quetiapine, sheet "All OLga data", read-out: OL differentiation, 0.08 uM (% Quet)): 16.2%; activation at 0.4 µM ([1]; Rattus norvegicus, 0.4 uM test compound, relative to quetiapine, sheet "All OLga data", read-out: OL differentiation, 0.4 uM (% Quet)): -6.1%; activation at 0.08 µM ([1]; Rattus norvegicus, test compound at 0.08 uM, MBP expression relative to quetiapine, NCC library screen, sheet "All OLga data", read-out: 0.08 uM (% Quet)): -4.5%; activation at 0.4 µM ([1]; Rattus norvegicus, test compound at 0.4 uM, MBP expression relative to quetiapine, NCC library screen, sheet "All OLga data", read-out: 0.4 uM (% Quet)): -15.9% |
| C[C@H]1COc2c(C3(N)CC3)c(F)cc3c(=O)c(C(=O)O)cn1c23 [Pazufloxacin] | 1.9% | -11% | 95.3% | 98% | 104% |  |  |  |  |  |
| NC1=NC(=O)C(c2ccccc2)O1 (stereo not shown) [Pemoline] | -15.2% | -10.6% | 96% | 104% | 101% |  |  |  |  |  |
| Nc1nc2c(ncn2CCC(CO)CO)c(=O)[nH]1 [Penciclovir] | -3.5% | 0.01% |  |  |  |  |  |  |  | viability at 0.1 µM (expanded OPCs; [9]): 100%; viability at 1 µM (expanded OPCs; [10]): 98%; viability at 10 µM (expanded OPCs; [11]): 90.7% |
| CC(C)(S)[C@@H](N)C(=O)O [Penicillamine] |  |  |  |  |  | -0.01% | 86.6 % DMSO | 87.9 % DMSO | 92.6 % DMSO | activation at 10 µM [1, 8]: 6% |
| CC1(C)S[C@@H]2[C@H](NC(=O)Cc3ccccc3)C(=O)N2[C@H]1C(=O)O [Penicillin G] |  |  |  |  |  | -9.8% |  |  |  | activation at 10 µM [1, 8]: 1.4%; viability at 0.1 µM (expanded OPCs; [9]): 107%; viability at 1 µM (expanded OPCs; [10]): 102%; viability at 10 µM (expanded OPCs; [11]): 114% |
| CC1(C)S[C@@H]2[C@H](NC(=O)COc3ccccc3)C(=O)N2[C@H]1C(=O)O [Penicillin V] |  |  |  |  |  |  | 96.1 % DMSO | 96.3 % DMSO | 93.4 % DMSO | activation at 2 µM [1, 15]: 14.6%; activation at 10 µM [1, 16]: 6.4% |
| CC(=O)CCCCn1c(=O)c2c(ncn2C)n(C)c1=O [Pentoxifylline] | 12.2% | -23.3% | 107% | 101% | 98% | 16.8% |  |  |  | activation at 10 µM [1, 8]: 7.2%; viability at 0.1 µM (expanded OPCs; [9]): 92.8%; viability at 1 µM (expanded OPCs; [10]): 93.6%; viability at 10 µM (expanded OPCs; [11]): 94.9% |
| CCCN1C[C@H](CSC)C[C@@H]2c3cccc4[nH]cc(c34)C[C@H]21 [Pergolide] |  |  |  |  |  | -15.7% |  |  |  | activation at 0.4 µM [1, 17]: -8.9%; viability at 0.1 µM (expanded OPCs; [9]): 100%; viability at 1 µM (expanded OPCs; [10]): 83.6%; viability at 10 µM (expanded OPCs; [11]): 41% |
| O=C1[C@H]2CCCC[C@H]2C(=O)N1CCCCN1CCN(c2nsc3ccccc23)CC1 [Perospirone, reference compound] | 84.5% | 18.7% | 110% | 164% | 132% |  |  |  |  | EC50 ([1]; Rattus norvegicus, average EC50 for induction of OL differentiation from independent biological replicates, eight concentrations): 100 nM; hit in OL differentiation assay, MRF-TMC ([1]; ● = confirmed hit in this paper's assay): ● |
| NNCCc1ccccc1 [Phenelzine] | 18% | 18.6% | 78.4% | 80.2% | 93.1% |  | 94.0 % DMSO | 95.0 % DMSO | 87.1 % DMSO | activation at 2 µM [1, 15]: 3.7%; activation at 10 µM [1, 16]: -4.2% |
| c1ccc2c(c1)Nc1ccccc1S2 [Phenothiazine] |  |  |  |  |  | -12.1% |  |  |  | activation at 0.4 µM [1, 17]: 4%; viability at 0.1 µM (expanded OPCs; [9]): 82.8%; viability at 1 µM (expanded OPCs; [10]): 85.1%; viability at 10 µM (expanded OPCs; [11]): 51.9% |
| CC(COc1ccccc1)N(CCCl)Cc1ccccc1 (stereo not shown) [Phenoxybenzamine] |  |  |  |  |  | -11% | 109.6 % DMSO | 116.7 % DMSO | 142.4 % DMSO | activation at 10 µM [1, 8]: 35.4% |
| NC(=O)OCCCc1ccccc1 [Phenprobamate] | 26.9% | 12.1% | 96% | 95.1% | 92.7% |  |  |  |  |  |
| Cc1ccc(N(CC2=NCCN2)c2cccc(O)c2)cc1 [Phentolamine] |  |  |  |  |  |  | 93.8 % DMSO | 88.6 % DMSO | 62.0 % DMSO | activation at 2 µM [1, 15]: -17.9%; activation at 10 µM [1, 16]: -82.7% |
| O=C1NC(=O)C(c2ccccc2)(c2ccccc2)N1 [Phenytoin] |  |  |  |  |  |  | 88.8 % DMSO | 86.9 % DMSO | 83.9 % DMSO | activation at 2 µM [1, 15]: -25.2%; activation at 10 µM [1, 16]: -26.2% |
| CC1=C(C/C=C(\C)CCC[C@H](C)CCC[C@H](C)CCCC(C)C)C(=O)c2ccccc2C1=O [Phylloquinone] |  |  |  |  |  |  |  |  |  | 2 uM (% Quet) ([1]; test compound at 2 uM, NCC library screen, sheet "All OLga data", relative to quetiapine): 17.4 % Quet; 10 uM (% Quet) ([1]; test compound at 10 uM, NCC library screen, sheet "All OLga data", relative to quetiapine): -25.4 % Quet; 0.1 µM (% DMSO) (expanded OPCs): 96.6 % DMSO; 1 µM (% DMSO) (expanded OPCs): 89.8 % DMSO; 10 µM (% DMSO) (expanded OPCs): 87.4 % DMSO |
| CNC(=O)Oc1ccc2c(c1)[C@]1(C)CCN(C)[C@@H]1N2C [Physostigmine] | -4.5% | 0.12% | 105% | 96.7% | 78% |  |  |  |  |  |
| CC(C)(O)[C@@H]1[C@H]2OC(=O)[C@@H]1[C@]1(O)C[C@H]3O[C@]34C(=O)O[C@H]2[C@]14C [Picrotin] | 6.5% | 5.9% | 84.8% | 84.6% | 85.6% |  |  |  |  |  |
| O=C1CC[C@@H](C(=O)N2CSC[C@H]2C(=O)O)N1 [Pidotimod] ([pGlu]-[Thz]-OH) | 7.5% | -1.8% | 96.9% | 105% | 104% |  |  |  |  |  |
| CC[C@@H]1C(=O)OC[C@@H]1Cc1cncn1C [Pilocarpine] | 0.3% | 6.6% | 90.2% | 101% | 90.1% |  |  |  |  |  |
| CC(N/C(=N\C#N)Nc1ccncc1)C(C)(C)C (stereo not shown) [Pinacidil] |  |  |  |  |  | -0.57% |  |  |  | activation at 10 µM [1, 8]: 26.1%; viability at 0.1 µM (expanded OPCs; [9]): 90.8%; viability at 1 µM (expanded OPCs; [10]): 98.8%; viability at 10 µM (expanded OPCs; [11]): 93.6% |
| CC(C)NCC(O)COc1cccc2[nH]ccc12 (stereo not shown) [Pindolol] |  |  |  |  |  | -2.9% | 88.9 % DMSO | 89.4 % DMSO | 86.5 % DMSO | activation at 10 µM [1, 8]: -35.6% |
| CCc1ccc(CCOc2ccc(CC3SC(=O)NC3=O)cc2)nc1 (stereo not shown) [Pioglitazone] | 13.3% | 55.6% | 96.9% | 120% | 164% |  |  |  |  |  |
| CCN1CCN(C(=O)N[C@@H](C(=O)N[C@@H]2C(=O)N3[C@@H]2SC(C)(C)[C@@H]3C(=O)O)c2ccccc2)C(=O)C1=O [Piperacillin] |  |  |  |  |  | 2% | 89.0 % DMSO | 88.3 % DMSO | 88.0 % DMSO | activation at 10 µM [1, 8]: -7.9% |
| Cc1nc2ccccn2c(=O)c1CCN1CCC(C(=O)c2ccc(F)cc2)CC1 [Pirenperone] | 31.6% | 62.7% |  |  |  |  |  |  |  | viability at 0.1 µM (expanded OPCs; [9]): 102%; viability at 1 µM (expanded OPCs; [10]): 92.1%; viability at 10 µM (expanded OPCs; [11]): 83% |
